Experiments:
Type in all cases: cell-based
[1] = system: MDA-MB-231 (breast cancer); experiment: MTT antiproliferative assay, MDA-MB-231; details: Homo sapiens, MDA-MB-231, 10 μM, 48 or 72 h, read-out: inhibition of cell growth, MDA-MB-231
Protocol: (§1) The antiproliferative activity of a test compound was determined in cell lines: MDA-MB-231 (breast cancer), HepG2 (liver cancer), SW620 (colon cancer), A375 (malignant melanoma), A431 (epidermoid carcinoma), A549 (lung adenocarcinoma), and HeLa ([…]). MDA-MB-231, HepG2, SW480, SW620, A375, and A431 cells were cultured in Dulbecco's modified Eagle's medium (DMEM) containing 10% fetal bovine serum (FBS). HeLa cells were cultured in MEM/EBSS (MEM) containing 10% FBS. A549 cells were maintained in Kaighn's modification of Ham's F-12 medium containing 10% FBS. The colorimetric MTT (3-(4,5-dimethylthiazol-2-yl)-2,5-diphenyltetrazolium bromide) assay was used to measure the cell viability of different cells following treatment with the test compound.
(§2) Briefly cells were seeded in a 96 well plate at a density of 2,000-5,000 cells/well. Following attachment, the cells were treated with the test compound in media at various concentrations ranging from 0.137 to 100 μM or at a single concentration of 10 μM. After the cells were incubated at 37° C. for 48 or 72 h, MTT (20 μL, 5 mg/mL in PBS) was added to each well and the cells were incubated for another 4 h at 37° C. The supernatant was removed carefully and 150 μL of DMSO was added to each well to dissolve the MTT formazan crystals. The plate was shaken for 15-20 min and the absorbance value of each well was determined using a multi-well plate reader at 490 nm. The wells treated with DMSO were taken as a vehicle control. Data were also obtained similarly for all the replicates and the percentage viability was determined with respect to the DMSO-treated cells. The results are summarized in Table 1 below, wherein A represents no less than 80% inhibition of cell growth at 10 μM; B represents no less than 50% but less than 80% inhibition of cell growth at 10 μM; C represents no less than 30% but less than 50% inhibition of cell growth at 10 μM; and D represents less than 30% inhibition of cell growth at 10 μM.

[2] = system: A549 (lung adenocarcinoma); experiment: MTT antiproliferative assay, A549; details: Homo sapiens, A549, 10 μM, 48 or 72 h, read-out: inhibition of cell growth, A549
Protocol: as §1, §2

[3] = system: SW620 (colon cancer); experiment: MTT antiproliferative assay, SW620; details: Homo sapiens, SW-620, SW620, 10 μM, 48 or 72 h, read-out: inhibition of cell growth, SW620
Protocol: as §1, §2

[4] = system: A431 (epidermoid carcinoma); experiment: MTT antiproliferative assay, A431; details: Homo sapiens, A-431, A431, 10 μM, 48 or 72 h, read-out: inhibition of cell growth, A431
Protocol: as §1, §2

[5] = system: A375 (malignant melanoma); experiment: MTT antiproliferative assay, A375; details: Homo sapiens, A-375, A375, 10 μM, 48 or 72 h, read-out: inhibition of cell growth, A375
Protocol: as §1, §2

[6] = system: HepG2 (liver cancer); experiment: MTT antiproliferative assay, HepG2; details: Homo sapiens, HepG2, 10 μM, 48 or 72 h, read-out: inhibition of cell growth, HepG2
Protocol: as §1, §2

[7] = system: HeLa (ovarian cancer); experiment: MTT antiproliferative assay, HeLa; details: Homo sapiens, 48 or 72 h, read-out: inhibition of cell growth, HELA
Protocol: as §1, §2

CO[C@]1(C)C(=O)C(=O)C=C2C1=CC=C1[C@@]2(C)CC[C@@]2(C)[C@@H]3C[C@](C)(CO)CC[C@]3(C)CC[C@]12C [Compound A14, (4S,6bS,8aS,11R,12aR,12bS,14aR)-11-(hydroxymethyl)-4-methoxy-4,6b,8a,11,12b,14a-hexamethyl-4,6b,7,8,8a,9,10,11,12,12a,12b,13,14,14a-tetradecahydropicene-2,3-dione]
inhibition at 10 µM [1]: < 30%
inhibition at 10 µM [2]: < 30%
inhibition at 10 µM [3]: < 30%
inhibition at 10 µM [4]: < 30%
inhibition at 10 µM [5]: < 30%
inhibition at 10 µM [6]: < 30%
inhibition at 10 µM [7]: 30 to 50%

CO[C@@]1(C)C2=CC=C3[C@@](C)(CC[C@@]4(C)[C@@H]5C[C@](C)(C(=O)O)CC[C@]5(C)CC[C@]34C)C2=CC(=O)[C@@H]1O [Compound A15, (2R,4aS,6aS,9S,10R,12bR,14aS,14bR)-10-hydroxy-9-methoxy-2,4a,6a,9,12b,14a-hexamethyl-11-oxo-1,2,3,4,4a,5,6,6a,9,10,11,12b,13,14,14a,14b-hexadecahydropicene-2-carboxylic acid]
inhibition at 10 µM [1]: ≥ 80%
inhibition at 10 µM [2]: < 30%
inhibition at 10 µM [3]: 30 to 50%
inhibition at 10 µM [4]: 50 to 80%
inhibition at 10 µM [5]: 50 to 80%
inhibition at 10 µM [6]: 30 to 50%
inhibition at 10 µM [7]: 50 to 80%

CO[C@@]1(C)C2=CC=C3[C@@](C)(CC[C@@]4(C)[C@@H]5C[C@](C)(C(=O)OCc6ccccc6)CC[C@]5(C)CC[C@]34C)C2=CC(=O)[C@@H]1O [Compound A16, benzyl (2R,4aS,6aS,9S,10R,12bR,14aS,14bR)-10-hydroxy-9-methoxy-2,4a,6a,9,12b,14a-hexamethyl-11-oxo-1,2,3,4,4a,5,6,6a,9,10,11,12b,13,14,14a,14b-hexadecahydropicene-2-carboxylate]
inhibition at 10 µM [1]: ≥ 80%
inhibition at 10 µM [2]: ≥ 80%
inhibition at 10 µM [3]: ≥ 80%
inhibition at 10 µM [4]: ≥ 80%
inhibition at 10 µM [5]: 50 to 80%
inhibition at 10 µM [6]: ≥ 80%
inhibition at 10 µM [7]: ≥ 80%

CNC(=O)[C@]1(C)CC[C@]2(C)CC[C@]3(C)C4=CC=C5C(=CC(=O)[C@H](O)[C@@]5(C)OC)[C@]4(C)CC[C@@]3(C)[C@@H]2C1 [Compound A17, (2R,4aS,6aS,9S,10R,12bR,14aS,14bR)-10-hydroxy-9-methoxy-N,2,4a,6a,9,12b,14a-heptamethyl-11-oxo-1,2,3,4,4a,5,6,6a,9,10,11,12b,13,14,14a,14b-hexadecahydropicene-2-carboxamide]
inhibition at 10 µM [1]: ≥ 80%
inhibition at 10 µM [2]: 30 to 50%
inhibition at 10 µM [3]: ≥ 80%
inhibition at 10 µM [4]: ≥ 80%
inhibition at 10 µM [5]: 50 to 80%
inhibition at 10 µM [6]: ≥ 80%
inhibition at 10 µM [7]: 50 to 80%

CO[C@@]1(C)C2=CC=C3[C@@](C)(CC[C@@]4(C)[C@@H]5C[C@](C)(CO)CC[C@]5(C)CC[C@]34C)C2=CC(=O)[C@@H]1O [Compound A18, (3R,4S,6bS,8aS,11R,12aR,12bS,14aR)-3-hydroxy-11-(hydroxymethyl)-4-methoxy-4,6b,8a,11,12b,14a-hexamethyl-2,3,4,6b,7,8,8a,9,10,11,12,12a,12b,13,14,14a-hexadecahydropicen-2-one]
inhibition at 10 µM [1]: ≥ 80%
inhibition at 10 µM [2]: 30 to 50%
inhibition at 10 µM [3]: ≥ 80%
inhibition at 10 µM [4]: ≥ 80%
inhibition at 10 µM [5]: 50 to 80%
inhibition at 10 µM [6]: ≥ 80%
inhibition at 10 µM [7]: ≥ 80%

CO[C@@]1(C)C2=CC=C3[C@@](C)(CC[C@@]4(C)[C@@H]5C[C@](C)(C=O)CC[C@]5(C)CC[C@]34C)C2=CC(=O)[C@@H]1O [Compound A19, (2R,4aS,6aS,9S,10R,12bR,14aS,14bR)-10-hydroxy-9-methoxy-2,4a,6a,9,12b,14a-hexamethyl-11-oxo-1,2,3,4,4a,5,6,6a,9,10,11,12b,13,14,14a,14b-hexadecahydropicene-2-carbaldehyde]
inhibition at 10 µM [1]: 50 to 80%
inhibition at 10 µM [2]: 50 to 80%
inhibition at 10 µM [3]: 50 to 80%
inhibition at 10 µM [4]: ≥ 80%
inhibition at 10 µM [5]: 30 to 50%
inhibition at 10 µM [6]: 50 to 80%
inhibition at 10 µM [7]: ≥ 80%

COC(=O)[C@]1(C)CC[C@]2(C)CC[C@]3(C)C4=CC=C5C(=CC(=O)[C@H](O)[C@@]5(C)OC)[C@]4(C)CC[C@@]3(C)[C@@H]2C1 [Compound A20, methyl (2R,4aS,6aS,9S,10R,12bR,14aS,14bR)-10-hydroxy-9-methoxy-2,4a,6a,9,12b,14a-hexamethyl-11-oxo-1,2,3,4,4a,5,6,6a,9,10,11,12b,13,14,14a,14b-hexadecahydropicene-2-carboxylate]
inhibition at 10 µM [1]: ≥ 80%
inhibition at 10 µM [2]: ≥ 80%
inhibition at 10 µM [3]: ≥ 80%
inhibition at 10 µM [4]: ≥ 80%
inhibition at 10 µM [5]: 50 to 80%
inhibition at 10 µM [6]: ≥ 80%
inhibition at 10 µM [7]: ≥ 80%

CO[C@@]1(C)C2CCC3[C@@](C)(CC[C@@]4(C)[C@@H]5C[C@](C)(C(=O)O)CC[C@]5(C)CC[C@]34C)C2=CC(=O)[C@@H]1O (stereo partly drawn) [Compound A21, (2R,4aS,6aR,9S,10R,12bR,14aS,14bR)-10-hydroxy-9-methoxy-2,4a,6a,9,12b,14a-hexamethyl-11-oxo-1,2,3,4,4a,5,6,6a,6b,7,8,8a,9,10,11,12b,13,14,14a,14b-icosahydropicene-2-carboxylic acid]
inhibition at 10 µM [1]: < 30%
inhibition at 10 µM [2]: < 30%
inhibition at 10 µM [3]: < 30%
inhibition at 10 µM [4]: < 30%
inhibition at 10 µM [5]: < 30%
inhibition at 10 µM [6]: < 30%
inhibition at 10 µM [7]: < 30%

CCCC(=O)O[C@H]1C(=O)C=C2C(=CC=C3[C@@]2(C)CC[C@@]2(C)[C@@H]4C[C@](C)(C(=O)NC)CC[C@]4(C)CC[C@]32C)[C@]1(C)OC [Compound A23, (3R,4S,6bS,8aS,11R,12aR,12bS,14aR)-4-methoxy-4,6b,8a,11,12b,14a-hexamethyl-11-(methylcarbamoyl)-2-oxo-2,3,4,6b,7,8,8a,9,10,11,12,12a,12b,13,14,14a-hexadecahydropicen-3-yl butyrate]
inhibition at 10 µM [1]: ≥ 80%
inhibition at 10 µM [2]: ≥ 80%
inhibition at 10 µM [3]: ≥ 80%
inhibition at 10 µM [4]: ≥ 80%
inhibition at 10 µM [5]: 50 to 80%
inhibition at 10 µM [6]: ≥ 80%
inhibition at 10 µM [7]: ≥ 80%

CCCC(=O)O[C@H]1C(O)C=C2C(=CC=C3[C@@]2(C)CC[C@@]2(C)[C@@H]4C[C@](C)(C(=O)OC)CC[C@]4(C)CC[C@]32C)[C@]1(C)OC (stereo partly drawn) [Compound A25, methyl (2R,4aS,6aS,9S,10S,12bR,14aS,14bR)-10-(butyryloxy)-11-hydroxy-9-methoxy-2,4a,6a,9,12b,14a-hexamethyl-1,2,3,4,4a,5,6,6a,9,10,11,12b,13,14,14a,14b-hexadecahydropicene-2-carboxylate]
inhibition at 10 µM [1]: < 30%
inhibition at 10 µM [2]: < 30%
inhibition at 10 µM [3]: < 30%
inhibition at 10 µM [4]: < 30%
inhibition at 10 µM [5]: < 30%
inhibition at 10 µM [6]: < 30%
inhibition at 10 µM [7]: < 30%

CNC1(O)C(=O)C=C2C(=CC=C3[C@@]2(C)CC[C@@]2(C)[C@@H]4C[C@](C)(C(=O)OC)CC[C@]4(C)CC[C@]32C)[C@]1(C)OC (stereo partly drawn) [Compound A26, methyl (2R,4aS,6aS,9S,12bR,14aS,14bR)-10-hydroxy-9-methoxy-2,4a,6a,9,12b,14a-hexamethyl-10-(methylamino)-11-oxo-1,2,3,4,4a,5,6,6a,9,10,11,12b,13,14,14a,14b-hexadecahydropicene-2-carboxylate]
inhibition at 10 µM [1]: 30 to 50%
inhibition at 10 µM [2]: < 30%
inhibition at 10 µM [3]: 30 to 50%
inhibition at 10 µM [4]: 30 to 50%
inhibition at 10 µM [5]: 30 to 50%
inhibition at 10 µM [6]: 30 to 50%
inhibition at 10 µM [7]: 30 to 50%
